Laboratory results taken from paper PMC10753699, “Synthesis of Some New 1,3,4-Oxadiazole Derivatives and Evaluation of Their Anticancer Activity” (ACS Omega, 2023).

Experiments:
[1] = system: L929 murine fibroblast cell line; assay: MTT cell viability / cytotoxicity on L929 (healthy cells); type: cell-based, mouse; conditions: mean ± S.D. of three determinations
Protocol: (§1) In 75 cm^2 sterile plastic tissue culture flasks, the human lung adenocarcinoma A549 and the mouse fibroblast L929 cell lines were cultured in 90% RPMI (Sigma, Deisenhofen, Germany) media supplemented with 10% (v/v) FBS (Gibco, Paisley, UK) and adherent monolayers of penicillin/streptomycin (100 units/mL) from Gibco, Paisley, UK. These cells were cultured at 37 °C in an environment that was humidified and contained 5% CO2.
(§2) The MTT (3-(4,5-dimethylthiazol-2-yl)-2,5-diphenyltetrazolium bromide) method was applicated to assess the cell viability of L929, C6 and A549 cell lines against the tested compounds according to the reported data.[51] In 96-well plates with a flat bottom, the A549, C6, and L929 cells were cultivated at a density of 5 × 10^3 cells per well. […] After addition, they were incubated for a full day in culture wells. Following the incubation period, 20 μL of phosphate-buffered saline (PBS) (Gibco, Paisley, UK) containing 5 mg/mL MTT powder (Sigma-Aldrich, St. Louis, MO, USA) was added to each well. The medium was taken out of the plate and replaced with 100 μL of DMSO in each well to dissolve the dye. This was left for 2 to 4 h under the same conditions and then left for 10 min. At the conclusion of the procedure, purple formazan, the reduction product of the MTT agent, was formed by the mitochondrial dehydrogenase enzyme of intact cells. A microtiter plate reader (BioTek Plate Reader, Winooski, VT, USA) was used to measure the cells at 540 nm. Cell viability was measured as a percentage and contrasted with that of the cells in the control group. Half-maximal inhibitory concentration 50 (IC50) values were determined by repeating each concentration in three wells and identifying the drug concentrations that decreased the absorbance to 50% of control values. The medium control served as the basis for calculating the percentage of viable cells.

C6 rat glioma cell line = assay: MTT cell viability / cytotoxicity on C6; type: cell-based; conditions: mean ± S.D. of three determinations
Protocol: as §2

MMP-9 enzyme = molecular target: T1, MMP-9 enzyme (Homo sapiens, UniProt P14780); assay: MMP-9 colorimetric inhibition assay; type: biochemical; conditions: for inhibition at 100 µg/mL: at 100 μg/mL
T1 construct: purchased EnzoLife Sciences Inc. (Farmingdale, New York, NY, USA)
T1 sequence (P14780 107-444 limits assumed): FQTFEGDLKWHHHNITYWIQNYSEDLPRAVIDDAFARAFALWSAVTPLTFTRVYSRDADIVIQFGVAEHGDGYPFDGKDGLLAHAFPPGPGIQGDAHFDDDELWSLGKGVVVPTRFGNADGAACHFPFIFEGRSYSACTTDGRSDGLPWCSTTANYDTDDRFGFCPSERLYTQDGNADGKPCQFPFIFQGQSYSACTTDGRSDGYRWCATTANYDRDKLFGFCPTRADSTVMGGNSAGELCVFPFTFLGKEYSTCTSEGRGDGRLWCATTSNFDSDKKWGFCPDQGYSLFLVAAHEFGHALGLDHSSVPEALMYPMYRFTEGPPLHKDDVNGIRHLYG
From the text: As described in our previous study,[36] the method was applied in exactly the same manner. EnzoLife Sciences Inc. provided MMP-9 colorimetric kits (Farmingdale, New York, NY, USA). The MMP Colorimetric Drug Discovery Kits are a comprehensive test technique that uses a thiopeptide (Ac-PLG-[2-mercapto-4-methyl-pentanoyl]-LG-OC2H5) as a chromogenic substrate to screen MMP inhibitors. Using a microplate reader (BioTek, PowerWave, Gen5 software, Winooski, VT, USA) at room temperature, the UV absorbance was measured at 412 nm. NNGH was employed as an inhibitor of control.

[2] = system: A549 human lung cancer cell line; assay: MTT cell viability / cytotoxicity on A549; type: cell-based; conditions: for IC50: MTT, mean ± S.D. of three determinations; for SI (L929/A549): selectivity index = IC50 on normal cells/IC50 on cancer cells
Protocol: as §1, §2

A549 cells [3] = assay: Mitochondrial membrane depolarization (JC-1, flow cytometry); type: cell-based, human; conditions: A549, IC50 concentration, 24 h
Protocol: Staining of cells with JC-1 was realized according to the manufacturer’s recommendations of BD, Pharmingen Flow cytometry kit. […] For this purpose, cells were seeded at an optimal density in six-well plates (not exceeding 1 × 10^6/mL cells). The cells were then incubated with the substances to be tested at the appropriate concentration and time. After the treatment, each cell suspension was taken into a 15 mL polystyrene centrifuge tube and the cells were centrifuged at 400g for 5 min and removed from the supernatant. 0.5 mL of a freshly prepared working solution was added to each pellet, and the solution was vortexed. The test cells were soaked in a JC-1 working solution at 37 °C for 10–15 min, and the cells were washed twice. In the first wash, 2 mL of 1X assay buffer was added and the cells were suspended sensitively. Then, the cells were centrifuged at 400g for 5 min and the supernatant was removed, carefully. In the second wash, 1 mL of 1X assay buffer was added and vortexed. After the cells were centrifuged at 400g for 5 min, each cell pellet was suspended in 0.5 mL 1X assay buffer and vortexed. Finally, the cell was analyzed by a flow cytometer.

A549 cells [4] = assay: Early/late apoptosis by Annexin V-FITC/PI flow cytometry; type: cell-based, human; conditions: A549, IC50 dose, 24 h incubation
Protocol: Phosphatidylserine externalization, a marker of early apoptosis, was assessed using the FITC Annexin V apoptosis detection kit (BD Pharmingen, San Jose, CA, USA) on a BD FACSAria flow cytometer. Following their collection, the A549 and L929 cells were twice washed in ice-cold PBS before being resuspended in 100 μL of binding buffer. The cells were treated with a volume of 5 μL (5 μg/mL) of Annexin V-FITC and PI, and they were incubated for 15 min at room temperature (20–25 °C) in the dark. Following that, 400 μL of binding buffer was added to the combination samples, and FACSDiva version 6.1.1 was used to analyze the samples on a BD FACSAria flow cytometer.

caspase-3 = assay: Caspase-3 activation in A549 cells; type: cell-based, human; conditions: A549, IC50 of the compounds, 24 h
Protocol: The Spectrofluorometric Caspase-3 Assay kit (BD Pharmingen, Franklin Lakes, NJ) was used to assess the activation of caspase-3. The purpose of the kit was to measure the early indicator of cells going through apoptosis, known as caspase-3 or the DEVD-cleaving activity. First, 1 × 10^6 cells/mL of cells were resuspended in cold cell lysis buffer, rinsed with PBS, and then allowed to sit on ice for 30 min. […] In each reaction, a well containing 0.2 mL of 1 x HEPES buffer was filled with […] of reconstituted AcDEVD-AMC, a synthetic tetrapeptide fluorogenic substrate for caspase-3 activity. Each reaction/well received 20 μL of cell lysate. The reaction mixtures were incubated at 37 °C for 1 h. Using a microplate reader (Perkin-Elmer/Victor/X3) with an excitation wavelength of 380 nm and an emission wavelength of 460 nm, the amount of AMC released from Ac-DEVD-AMC was quantified. When compared with controls, apoptotic cell lysates containing active caspase-3 produced a significant emission. […] For all doses, duplicate wells were used. This experiment was performed according to Yurttaş et al.[52]

A549 cells [5] = assay: Cell cycle analysis by flow cytometry; type: cell-based, human; conditions: A549, 24 h incubation
Protocol: Following a 24 h incubation period with the compounds, a cell cycle analysis measurement methodology was implemented in compliance with the manufacturer’s instructions for A549 cells (BD, Biosciences). Next, the cells were immersed in citrate buffer for a short while. At room temperature, the cells were centrifuged for 5 min at 400 g. After the supernatant was decanted, 250 μL of solution A was added to the pellet, and it was allowed to sit at room temperature for 10 min. Solution B (200 μL) was then added, carefully mixed, and incubated at room temperature for 10 min. Solution C (200 μL) was then added. It was gently mixed, allowed to stand at 4 °C for 10 min in the dark, and then examined using BD Bioscience’s MODFID software on a flow cytometer. This method was applied in our previous study.[54]

[6] = Mus musculus, L929, L929 healthy cell line
[7] = Homo sapiens, A549, A549 cell line

Row | SMILES | IC50 [1, 6] | IC50 (C6 rat glioma cell line) | inhibition at 100 µg/mL (MMP-9 enzyme) | IC50 [2, 7] | IC50 (MMP-9 enzyme) | mitochondrial membrane depolarization % (A549 cells [3]) | mitochondrial membrane polarization % (A549 cells [3]) | Q1: necrotic cells (A549 cells [4]) | Q2 + Q4: early and late apoptotic cells (A549 cells [4]) | Q2: late apoptotic cells (A549 cells [4]) | Q4: early apoptotic cells (A549 cells [4]) | % (+): caspase-3 activity positive cells (caspase-3) | % (−): caspase-3 activity negative cells (caspase-3) | % S (A549 cells [5]) | G0/G1% (A549 cells [5]) | G2/M % (A549 cells [5]) | other results
1 | CC(=O)Nc1ccccc1OCc1nnc(SCC(=O)Nc2nc3ccccc3s2)o1 [Compound 4a, 2-[(5-((2-Acetamidophenoxy)methyl)-1,3,4-oxadiazol-2-yl)thio]-N-(benzothiazol-2-yl)acetamide] | 586 ± 22.9 µM | 18.5 ± 5.58 µM | 41.4 ± 1.85% | 22.3 ± 1.67 µM |  |  |  |  |  |  |  |  |  |  |  |  | melting point: 189 to 194 °C; SI (L929/A549) [2]: 26.250
2 | CC(=O)Nc1ccccc1OCc1nnc(SCC(=O)Nc2nc3ccc(Cl)cc3s2)o1 [Compound 4b, 2-[(5-((2-Acetamidophenoxy)methyl)-1,3,4-oxadiazol-2-yl)thio]-N-(6-chlorobenzothiazol-2-yl)acetamide] | < 7.96 µM | 19.9 ± 6.33 µM | 49.5 ± 1.86% | 24.5 ± 5.76 µM |  |  |  |  |  |  |  |  |  |  |  |  | 
3 | COc1ccc2nc(NC(=O)CSc3nnc(COc4ccccc4NC(C)=O)o3)sc2c1 [Compound 4c, 2-[(5-((2-Acetamidophenoxy)methyl)-1,3,4-oxadiazol-2-yl)thio]-N-(6-methoxybenzothiazol-2-yl)acetamide] | 8.52 ± 0.31 µM | 22.1 ± 23.7 µM | 30.6 ± 2.29% | > 1030 µM |  |  |  |  |  |  |  |  |  |  |  |  | IC50 ([2]; A549 cell line): > 1000 µM
4 | CC(=O)Nc1ccccc1OCc1nnc(SCC(=O)Nc2nc3ccc([N+](=O)[O-])cc3s2)o1 [Compound 4d, 2-[(5-((2-Acetamidophenoxy)methyl)-1,3,4-oxadiazol-2-yl)thio]-N-(6-nitrobenzothiazol-2-yl)acetamide] | < 7.96 µM | 28.3 ± 12.1 µM | 27.6 ± 2.01% | > 1030 µM |  |  |  |  |  |  |  |  |  |  |  |  | IC50 ([1]; L929 healthy cell line): < 7.8 µM; IC50 ([2]; A549 cell line): > 1000 µM
5 | CC(=O)Nc1ccccc1OCc1nnc(SCC(=O)Nc2nc3ccc(C)cc3s2)o1 [Compound 4e, 2-[(5-((2-Acetamidophenoxy)methyl)-1,3,4-oxadiazol-2-yl)thio]-N-(6-methylbenzothiazol-2-yl)acetamide] | 29.9 ± 3.01 µM | 458 ± 28.2 µM | > 50% | 43 ± 2.79 µM | 19.5 ± 3.18 µM |  |  |  |  |  |  |  |  |  |  |  | melting point: 213 to 216 °C; SI (L929/A549) [2]: 0.69
6 | CCOc1ccc2nc(NC(=O)CSc3nnc(COc4ccccc4NC(C)=O)o3)sc2c1 [Compound 4g, 2-[(5-((2-Acetamidophenoxy)methyl)-1,3,4-oxadiazol-2-yl)thio]-N-(6-ethoxybenzothiazol-2-yl)acetamide] | < 7.96 µM | 8.16 ± 0.24 µM | > 75% | < 7.82 µM | 7.1 ± 1.27 µM |  |  |  |  |  |  |  |  |  |  |  | melting point: 208 to 212 °C; IC50 ([1]; L929 healthy cell line): < 7.82 µM; inhibition of A549 at the lowest concentration tested ([2]; A549, MTT, lowest concentration tested): greater than 50%; SI (L929/A549) [2]: <1
7 | COc1ccc(NC(=O)CSc2nnc(COc3ccccc3NC(C)=O)o2)cc1 [Compound 4i, 2-[(5-((2-Acetamidophenoxy)methyl)-1,3,4-oxadiazol-2-yl)thio]-N-(4-methoxyphenyl)acetamide] | 14.6 ± 1.59 µM |  | 40.9 ± 2.54% | 1.59 ± 0.44 µM |  | 8.84% | 90.51% | 30.12% | 21.54% | 9.75% | 11.79% | 1.9% | 98.2% | 8.09% | 78.78% | 12.14% | Q3: viable cells (A549 cells [4]): 48.35%
8 | CC(=O)Nc1ccccc1OCc1nnc(SCC(=O)Nc2ccc(Cl)cc2)o1 [Compound 4k, 2-[(5-((2-Acetamidophenoxy)methyl)-1,3,4-oxadiazol-2-yl)thio]-N-(4-chlorophenyl)acetamide] | 38.2 ± 4.91 µM | > 1000 µM | 48.4 ± 3.56% | 7.48 ± 0.58 µM |  | 6.29% | 93.04% | 33.19% | 17.98% | 10.35% | 7.63% | 1.8% | 98.5% | 18.11% | 63.31% | 18.58% | Q3: viable cells (A549 cells [4]): 48.83%
9 | CC(=O)Nc1ccccc1OCc1nnc(SCC(=O)Nc2ccc(F)cc2)o1 [Compound 4l, 2-[(5-((2-Acetamidophenoxy)methyl)-1,3,4-oxadiazol-2-yl)thio]-N-(4-fluorophenyl)acetamide] | 397 ± 10.2 µM | > 1000 µM | > 75% | 1.8 ± 0.12 µM | 2.55 ± 0.66 µM | 8.71% | 90.58% | 32.81% | 18.49% | 11.46% | 7.03% | 1.4% | 98.8% | 6.62% | 69.36% | 24.03% | Q3: viable cells (A549 cells [4]): 48.70%
10 | COc1ccc(S(=O)(=O)N(CC(=O)NO)CC(C)C)cc1 [NNGH, N-isobutyl-N-(4-methoxyphenylsulfonyl)glycyl hydroxamic, reference compound] |  |  |  |  | 0.0074 ± 0.0002 µM |  |  |  |  |  |  |  |  |  |  |  | 
11 | N.N.[Cl][Pt][Cl] [cisplatin, reference compound] |  |  |  |  |  | 22.36% | 76.67% | 28.01% | 10.07% | 5.04% | 5.03% | 11.3% | 90.0% | 2.18% | 74.75% | 23.07% | IC50 ([2]; A549 cell line): 4.98 ± 0.66 µM
